According to article PMC9057582, “HIF inhibitor 32-134D eradicates murine hepatocellular carcinoma in combination with anti-PD1 therapy” (The Journal of Clinical Investigation, 2022):

What was measured:
[1] = tested on: HIF transcriptional activity; test: HIF-dependent luciferase reporter assay (FLuc/RLuc ratio) in Hep3B-c1 cells; format: cell-based; details: Homo sapiens, 1% O2, 24 hours, read-out: IC50, inhibition of HIF-dependent reporter gene expression
Excerpt: The NCI CellMiner database contains expression data for over 25,000 mRNAs in 60 human cancer cell lines that have been exposed to more than 20,000 chemical compounds ([49]). We searched CellMiner for a compound that induced changes in gene expression that were highly correlated with those induced by acriflavine, but which was structurally unrelated to acriflavine. Compounds that satisfied the above criteria were identified and subsequently analyzed in Hep3B-c1 cells ([50]), which are stably transfected with HIF-dependent reporter plasmid p2.1, in which firefly luciferase (FLuc) coding sequences are located downstream from a hypoxia-response element (HRE) and a basal SV40 promoter; and control reporter pSVR, in which Renilla luciferase (RLuc) coding sequences are downstream of the basal SV40 promoter only (Figure 1A). The FLuc/RLuc ratio in cells exposed to 1% O2 for 24 hours is a specific measure of HIF-dependent gene expression.
Figure 1 Identification of HIF inhibitors. (A) Hep3B-c1 cells were stably transfected with firefly luciferase (FLuc) reporter p2.1, which contains a hypoxia-response element (HRE), and Renilla luciferase (RLuc) reporter pSVR. (B) Hep3B-c1 cells were incubated with vehicle (Veh; 0.1% DMSO; blue bars) or 10 μM 32-134D (red bars) at 20% O2 (n = 6) or 1% O2 (n = 12) for 24 hours. Cell lysates were assayed for Fluc/Rluc activity (mean ± SEM); *P < 0.05 versus vehicle (χ^2 test). (C) Chemical structures and IC50 values for HIF inhibitors. (D and E) Hep3B cells were exposed to 20% O2 with vehicle, or 1% O2 with vehicle (blue bar), 32-134D (red bars), 33-063 (green bars), or PT2385 (brown bars) for 24 hours and CA9 (D) and EPO (E) mRNAs were quantified by RT-qPCR. […] (F) Hep3B cells were exposed to 20% or 1% O2 in the presence of vehicle or 1% O2 in the presence of 5 μM 32-134D (n = 3 each) for 24 hours. […]
Hep3B-c1 cells ([50]) were seeded on 24-well plates. […] FLuc/RLuc ratios were determined using the Dual Luciferase Reporter Assay System (Supplemental Table 6) and the VICTOR Nivo plate reader (PerkinElmer).

[2] = tested on: Hepa1-6 tumors; test: Intratumoral mRNA (RT-qPCR, RT-qPCR array) and protein (ELISA) expression in Hepa1-6 tumors; format: in vivo, C57L mice
Procedure: By contrast, the expression of mRNAs encoding the chemokine CXCL1 and interleukins IL-6 and IL-10, which recruit/activate TAMs and/or MDSCs (Supplemental Table 4), was inhibited by 32-134D treatment (P < 0.05; Figure 6D).
Figure 6 Effect of 32-134D on intratumoral gene expression. (A–D) C57L mice were injected with Hepa1-6 HCC cells subcutaneously and when tumors reached a volume of 200 mm^3, the mice were treated with vehicle (blue bars) or 32-134D (40 mg/kg; red bars) by daily intraperitoneal injection for 8 days. The tumors were harvested and mRNA was quantified by RT-qPCR and normalized to blue (mean ± SEM, n = 4). *P < 0.05 versus blue (ANOVA with Bonferroni’s post hoc test). (E) Effect of 32-134D on intratumoral expression of cytokines and chemokines. Total RNA isolated from tumors of 32-134D–treated versus vehicle-treated mice (n = 3 each) was analyzed using an RT-qPCR array and the ratio of mean expression (32-134D/vehicle) was determined. mRNAs with a significant difference between groups (P < 0.05, Student’s t test) are annotated.
Figure 7 Effect of 32-134D on intratumoral expression of immunoregulatory proteins. (A–H) Lysates prepared from tumors of 32-134D–treated versus vehicle-treated mice were subjected to ELISA for secreted proteins mediating antitumor immunity (CXCL2, CXCL9, CXCL10) or immunosuppression (CXCL1, IL-6, IL-10, VEGFA). The data are presented as mean ± SEM (n = 4 each). *P < 0.05 (Mann-Whitney test).
Tumors were homogenized in ice-cold PBS supplemented with 1% Triton X-100 and PIs, centrifuged at 10,000g for 20 minutes to pellet debris, and the supernatant was collected for ELISA using commercial kits (Supplemental Table 6). Optical density was obtained at 450 nm (corrected for readings at 570 nm) using the VICTOR Nivo plate reader. Sample protein concentration was calculated by linear regression from a standard curve.
Total RNA from Hepa1-6 tumors was analyzed using the RT^2 Profiler PCR Array of Mouse Cytokines and Chemokines (Supplemental Table 6) according to the manufacturer’s instructions.

[3] = RT-qPCR array of 84 mRNAs, P < 0.05
[4] = RT-qPCR, 40 mg/kg, 8 days, P < 0.05

In the case of `Brc1ccc2c(-c3csc(-c4c[nH]c5c(Br)cccc45)n3)c[nH]c2c1` [Compound 32-134D], the IC50 [1] is reported as 2500 nM, the “CXCL1, IL-6, IL-10, and VEGFA protein in tumor lysates” value ([2]; ELISA) is reported as “decreased levels” and the “CXCL2, CXCL9, and CXCL10 protein in tumor lysates” value ([2]; ELISA, P < 0.05) is reported as “significantly increased levels”. For the same molecule, the “number of cytokine/chemokine mRNAs with decreased expression” value [2, 3] was 40 mRNAs, the “number of cytokine/chemokine mRNAs with increased expression” value [2, 3] was 5 mRNAs and the “tumor expression of CXCL1, IL-6 and IL-10 mRNA” value [2, 4] was “inhibited”. The “tumor expression of CXCL9, CXCL10, and IFN-γ mRNA” value [2, 4] was “increased” and the “tumor mRNAs encoding angiogenic factors (ANGPTL4, EPO, PGF, VEGFA) and immunosuppression proteins (B7H4, CD47, CD73, PDL1, SLC2A1, HAVCR2, CD70, LDHA, ENTPD1, CA9)” value [2, 4] was “significantly decreased”.
